This is an account of results in the OPERA property sets (Mansouri et al. 2018).

The structures appear in SMILES notation. ≈ marks a conversion by molar mass, not a printed value.

As to `Clc1cc(Cl)c(-c2cc(Cl)c(Cl)c(Cl)c2)cc1Cl`, the solubility (25 °C) turned out to be 6.17 nM (≈ 2.23 ng/mL). On to `Clc1cccc(-c2c(Cl)cc(Cl)c(Cl)c2Cl)c1Cl`, for which the solubility (25 °C) turned out to be 3.31 nM (≈ 1.19 ng/mL). Consider `Clc1ccc(-c2cc(Cl)cc(Cl)c2Cl)c(Cl)c1`, for which the solubility (25 °C) amounted to 15.1 nM (≈ 4.94 ng/mL).

`Clc1cc(Cl)c(-c2c(Cl)c(Cl)c(Cl)c(Cl)c2Cl)cc1Cl`: the solubility (25 °C) was found to be 0.316 nM (≈ 0.136 ng/mL). For the molecule `Clc1ccc(Cl)c(-c2c(Cl)c(Cl)c(Cl)c(Cl)c2Cl)c1Cl`, the solubility (25 °C) was determined as 0.794 nM (≈ 0.341 ng/mL). Regarding `Clc1cc(Cl)c(-c2cc(Cl)ccc2Cl)c(Cl)c1`, for the setting “25 °C”, the solubility was found to be 33.9 nM (≈ 11.1 ng/mL). On the same count and under the same terms, with `Clc1ccc(-c2c(Cl)cccc2Cl)cc1Cl` the figure was 95.5 nM (≈ 27.9 ng/mL). Regarding `Clc1ccc(-c2cc(Cl)c(Cl)c(Cl)c2Cl)c(Cl)c1`, the solubility (20 °C) stood at 3.02 nM (≈ 1.09 ng/mL). Take `Clc1cc(Cl)c(-c2c(Cl)c(Cl)c(Cl)c(Cl)c2Cl)c(Cl)c1`: the solubility (25 °C) was found to be 0.331 nM (≈ 0.142 ng/mL). Molecule `Clc1cccc(-c2cc(Cl)c(Cl)c(Cl)c2Cl)c1Cl` showed a solubility (25 °C) of 3.8 nM (≈ 1.37 ng/mL). Still for that read-out and setting: with `Clc1cccc(-c2ccc(Cl)c(Cl)c2Cl)c1` the figure was 170 nM (≈ 49.6 ng/mL); with `Clc1cc(Cl)c(-c2ccc(Cl)c(Cl)c2)c(Cl)c1`, 12.3 nM (≈ 4.02 ng/mL). Still for that read-out and setting: with `Clc1cccc(-c2c(Cl)c(Cl)cc(Cl)c2Cl)c1` the figure was 17.4 nM (≈ 5.67 ng/mL); with `Clc1cc(Cl)c(-c2cc(Cl)c(Cl)c(Cl)c2Cl)c(Cl)c1`, 2.09 nM (≈ 0.826 ng/mL). On the same count and under the same terms, with `Clc1ccc(-c2ccccc2)cc1Cl` the figure was 407 nM (≈ 90.9 ng/mL); with `Clc1cc(Cl)c(-c2c(Cl)ccc(Cl)c2Cl)c(Cl)c1Cl`, 7.08 nM (≈ 2.8 ng/mL); with `Clc1cc(-c2cc(Cl)c(Cl)c(Cl)c2Cl)cc(Cl)c1Cl`, 1.9 nM (≈ 0.753 ng/mL).

`Clc1ccc(-c2c(Cl)ccc(Cl)c2Cl)c(Cl)c1` gave a solubility (25 °C) of 67.7 nM (≈ 22.1 ng/mL).

On to `Clc1cc(Cl)c(Cl)c(-c2c(Cl)cc(Cl)c(Cl)c2Cl)c1`, for which, where the note is “25 °C”, the solubility worked out at 2.09 nM (≈ 0.826 ng/mL). `Clc1cc(Cl)c(-c2cc(Cl)c(Cl)cc2Cl)c(Cl)c1` displayed a solubility (25 °C) of 7.59 nM (≈ 2.74 ng/mL). Same read-out and setting: with `Clc1ccc(-c2c(Cl)cccc2Cl)c(Cl)c1` the figure was 224 nM (≈ 65.4 ng/mL); with `Clc1cc(Cl)c(-c2c(Cl)c(Cl)c(Cl)c(Cl)c2Cl)c(Cl)c1Cl`, 0.0788 nM (≈ 0.0366 ng/mL); with `Clc1cc(Cl)c(Cl)c(-c2cc(Cl)c(Cl)cc2Cl)c1`, 2.63 nM (≈ 0.949 ng/mL). For the molecule `Clc1ccccc1-c1c(Cl)c(Cl)cc(Cl)c1Cl`, the solubility (25 °C) amounted to 39.8 nM (≈ 13 ng/mL). On the same count and under the same terms, for `Clc1ccc(-c2c(Cl)cccc2Cl)c(Cl)c1Cl` the value was 166 nM (≈ 54.2 ng/mL); for `Clc1cc(Cl)c(-c2c(Cl)cc(Cl)c(Cl)c2Cl)c(Cl)c1Cl`, 0.794 nM (≈ 0.341 ng/mL); for `Clc1cc(-c2c(Cl)cccc2Cl)c(Cl)c(Cl)c1Cl`, 7.41 nM (≈ 2.68 ng/mL). For `Clc1cc(-c2c(Cl)c(Cl)cc(Cl)c2Cl)c(Cl)c(Cl)c1Cl`, the solubility (25 °C) amounted to 0.513 nM (≈ 0.22 ng/mL).

Where the note is “25 °C”, `Clc1ccc(-c2c(Cl)cc(Cl)cc2Cl)c(Cl)c1` gave a solubility of 21.9 nM (≈ 7.14 ng/mL). As for `Clc1cc(Cl)c(-c2ccccc2Cl)c(Cl)c1`, under “25 °C”, the solubility was found to be 224 nM (≈ 65.4 ng/mL). Molecule `Clc1cccc(-c2cc(Cl)c(Cl)cc2Cl)c1` returned a solubility (25 °C) of 74.1 nM (≈ 21.7 ng/mL).

Turning to `Clc1cccc(-c2c(Cl)cccc2Cl)c1Cl`, the solubility (25 °C) is 501 nM (≈ 146 ng/mL). Take `Clc1cc(-c2c(Cl)cc(Cl)c(Cl)c2Cl)c(Cl)c(Cl)c1Cl`: the solubility (25 °C) is 0.38 nM (≈ 0.163 ng/mL).

The molecule `Clc1cc(-c2cc(Cl)c(Cl)c(Cl)c2)cc(Cl)c1Cl` displayed a solubility (25 °C) of 1.41 nM (≈ 0.51 ng/mL). In the case of `Clc1ccc(-c2c(Cl)cc(Cl)c(Cl)c2Cl)cc1`, the solubility (25 °C) was found to be 11.2 nM (≈ 3.66 ng/mL). The molecule `Clc1cc(-c2c(Cl)ccc(Cl)c2Cl)c(Cl)c(Cl)c1Cl` registered a solubility (25 °C) of 2.57 nM (≈ 1.02 ng/mL). On the same count and under the same terms, with `Clc1cc(Cl)c(-c2c(Cl)c(Cl)cc(Cl)c2Cl)c(Cl)c1Cl` the figure was 0.631 nM (≈ 0.271 ng/mL); with `Clc1cc(Cl)c(-c2c(Cl)c(Cl)cc(Cl)c2Cl)c(Cl)c1`, 3.24 nM (≈ 1.28 ng/mL); with `Clc1ccc(Cl)c(-c2c(Cl)c(Cl)cc(Cl)c2Cl)c1Cl`, 11.5 nM (≈ 4.54 ng/mL). Same read-out and setting: with `Clc1ccc(-c2ccccc2Cl)c(Cl)c1` the figure was 323 nM (≈ 83.3 ng/mL); with `Clc1cc(Cl)c(Cl)c(-c2ccccc2)c1Cl`, 56.2 nM (≈ 16.4 ng/mL); with `Clc1cc(Cl)cc(-c2c(Cl)c(Cl)cc(Cl)c2Cl)c1`, 5.38 nM (≈ 1.94 ng/mL). In turn, `Clc1ccc(Cl)c(-c2c(Cl)cc(Cl)c(Cl)c2Cl)c1` displayed a solubility (25 °C) of 9.77 nM (≈ 3.53 ng/mL). Molecule `Clc1ccc(Cl)c(-c2c(Cl)ccc(Cl)c2Cl)c1` showed a solubility (20 °C) of 64.6 nM (≈ 21.1 ng/mL). As to `Clc1cc(-c2c(Cl)cc(Cl)c(Cl)c2Cl)cc(Cl)c1Cl`, the solubility (25 °C) is 0.794 nM (≈ 0.314 ng/mL). Still for that read-out and setting: with `Clc1ccc(-c2cc(Cl)c(Cl)cc2Cl)c(Cl)c1` the figure was 11.2 nM (≈ 3.66 ng/mL). `Clc1ccc(-c2c(Cl)c(Cl)c(Cl)c(Cl)c2Cl)c(Cl)c1` displayed a solubility (25 °C) of 1.07 nM (≈ 0.423 ng/mL). Same read-out and setting: for `Clc1cc(Cl)cc(-c2c(Cl)c(Cl)c(Cl)c(Cl)c2Cl)c1` the value was 0.794 nM (≈ 0.314 ng/mL); for `Clc1ccc(-c2c(Cl)c(Cl)cc(Cl)c2Cl)c(Cl)c1Cl`, 3.8 nM (≈ 1.5 ng/mL); for `Clc1ccc(-c2cc(Cl)cc(Cl)c2Cl)cc1`, 170 nM (≈ 49.6 ng/mL). Consider `Clc1ccc(-c2ccccc2)c(Cl)c1Cl`, for which, for the setting “25 °C”, the solubility turned out to be 661 nM (≈ 170 ng/mL). Still for that read-out and setting: with `Clc1cc(-c2c(Cl)ccc(Cl)c2Cl)cc(Cl)c1Cl` the figure was 5.37 nM (≈ 1.94 ng/mL). Still for that read-out and setting: for `Clc1cc(Cl)c(-c2cccc(Cl)c2Cl)c(Cl)c1` the value was 39.8 nM (≈ 13 ng/mL); for `Clc1cc(Cl)c(-c2ccc(Cl)c(Cl)c2Cl)c(Cl)c1`, 5.76 nM (≈ 2.08 ng/mL). For `Clc1cc(Cl)cc(-c2c(Cl)ccc(Cl)c2Cl)c1`, where the note is “25 °C”, the solubility was 11.2 nM (≈ 3.66 ng/mL).

For the setting “20 °C”, `Clc1cc(Cl)c(-c2ccc(Cl)c(Cl)c2Cl)cc1Cl` had a solubility of 4.16 nM (≈ 1.5 ng/mL).

On to `Clc1cc(-c2c(Cl)c(Cl)cc(Cl)c2Cl)cc(Cl)c1Cl`, for which the solubility (25 °C) was determined as 0.794 nM (≈ 0.314 ng/mL). Same read-out and setting: with `Clc1cc(Cl)cc(-c2ccccc2Cl)c1` the figure was 501 nM (≈ 129 ng/mL).

Usually solubility stands for the dissolved amount per volume that the medium holds. Read a low solubility as little dissolved substance.
